Measurements as given in ChEMBL document CHEMBL3988442, “University of Dundee, Small-Polar-MMV Screening Library” (2021).

Key:
[1] = microbe, parasite or virus in culture; settings: Mycobacterium tuberculosis, 96 h, read-out: pIC50 (converted)
[2] = microbe, parasite or virus in culture; settings: Mycobacterium tuberculosis, 72 h, read-out: pIC50 (converted)

SMILES | IC50 [1] | IC50 [2]
CCOC(=O)CNC(=O)c1ccc2c(c1)OCCO2 | > 501 µM | > 501 µM
CC1=CC(=O)N(Cc2ccccc2)C1=O | 81.5 µM | 49.8 µM
Cc1ccc(C(=O)N2CCN(c3nccs3)CC2)o1 | 183 µM | 157 µM
OCCOCCSc1n[nH]c(-c2cc(F)cc(F)c2)n1 | > 501 µM | > 501 µM
COCCNC(=O)COc1ccc2c(c1)OCO2 | 62.9 µM | 128 µM
COc1cccc(CNCCn2cccn2)c1OC | > 501 µM | 196 µM
Cc1ccc(C(=O)Nc2cnn(C)c2)cn1 | > 501 µM | > 501 µM
CCC(C)c1cc(C(=O)Nc2ncccc2O)on1 (stereo not drawn) | 268 µM | 178 µM
COC(=O)c1csc(NC(=O)CCn2cccn2)c1 | > 501 µM | 303 µM
O=C(CSc1nnnn1Cc1cccs1)NC1CC1 | 216 µM | 492 µM
CC(Nc1cccc(OC(F)(F)F)c1)C(=O)NC(N)=O (stereo not drawn) | > 501 µM | 184 µM
OCCOCCN1CCC(=Cc2ccccc2)CC1 | 242 µM | 203 µM
CS(=O)(=O)Cc1ccccc1NCc1ccsc1 | > 501 µM | 220 µM
C[S+]([O-])c1nncn1CCCOc1cccc(Cl)c1 (stereo not drawn) | > 501 µM | 341 µM
CC(=O)Nc1ccc(C(=O)N(C)Cc2cccs2)cc1 | 272 µM | 307 µM
CCCn1nc(C(=O)NCc2csc(Br)c2)ccc1=O | 154 µM | 222 µM
CC(C)CC1CCN(S(N)(=O)=O)C1 (stereo not drawn) | > 501 µM | > 501 µM
CCCS(=O)(=O)NCCOc1ccc(C#N)cc1 | 291 µM | 220 µM
CCC1CN(C)c2ccccc2CN1CCC(=O)NC (stereo not drawn) | > 501 µM | > 501 µM
Cn1ccnc1N1CCN(c2ccc(C#N)cn2)CC1 | > 501 µM | > 501 µM
Cc1cc(S(=O)(=O)NC2CCS(=O)(=O)C2)c(C)s1 (stereo not drawn) | 310 µM | 97.4 µM
CN(C)C(=O)CCOC(=O)c1cccc(Cl)c1 | > 501 µM | 227 µM

SMILES | IC50 [1] | IC50 [2]
CS(=O)(=O)CCN1CCC(Oc2ccc(F)cc2)CC1 | 280 µM | 221 µM
Nc1nc(-c2c(F)cccc2F)co1 | > 501 µM | > 501 µM
CCNC(=O)c1cc2ccc(OC)cc2[nH]1 | > 501 µM | 283 µM
Cc1ccncc1NC1CS(=O)(=O)c2ccccc21 (stereo not drawn) | 43.2 µM | 27.1 µM
O=C(NCCOc1ncccc1Cl)c1ccsc1 | 145 µM | 470 µM
O=C(c1cc(Cl)c[nH]1)N1CCOC(c2cccs2)C1 (stereo not drawn) | > 501 µM | 50.5 µM
CC(CNC(=O)c1ccc(Cl)cn1)Cn1ccnc1 (stereo not drawn) | 176 µM | 159 µM
CS(=O)(=O)N1CCC(Cc2ccccc2)C1 (stereo not drawn) | 467 µM | 482 µM
CC(C(=O)NCc1cccs1)S(=O)(=O)C1CCCC1 (stereo not drawn) | > 501 µM | 164 µM
CC1Cc2ccccc2N(C(=O)c2csnn2)C1 (stereo not drawn) | > 501 µM | > 501 µM
CC(C)Nc1cc(Cl)ccc1OCCS(C)(=O)=O | 222 µM | 191 µM
Cn1cc(Br)cc1C(=O)NCCCNc1ncccn1 | > 501 µM | 292 µM
CCCOc1ccc(NS(=O)(=O)N(C)C)cc1Cl | > 501 µM | 196 µM
CN(C)C(CN)c1ccc(F)cc1 (stereo not drawn) | > 501 µM | 244 µM
Cn1cc(NC(=O)C2=Cc3ccccc3OC2)cn1 | > 501 µM | > 501 µM
CCc1noc(Cn2cnc3ccccc3c2=O)n1 | > 501 µM | > 501 µM
CC(O)CN1C(=O)C=CC1=O (stereo not drawn) | 286 µM | 135 µM
OCCN1CCN(c2nc(-c3ccccc3)no2)CC1 | > 501 µM | 83.7 µM
Cc1ncsc1C(=O)NC(C)C(C)C (stereo not drawn) | > 501 µM | > 501 µM
CSCCOC(=O)c1ccn(C(C)C)n1 | 248 µM | 241 µM
CC(C(N)=O)N1CCC(=Cc2ccccc2)CC1 (stereo not drawn) | 364 µM | 290 µM
NC(=O)CN1CCC(COCc2ccccc2)C1 (stereo not drawn) | 292 µM | 268 µM
